Laboratory results from article PMC5760624, “Microbiota derived short chain fatty acids promote histone crotonylation in the colon through histone deacetylases” (Nature Communications, 2018).

Legend:
[1] = target: T1, HDAC1 (Homo sapiens, UniProt Q13547); experiment: in vitro histone decrotonylation/deacetylation assay with recombinant HDAC1; also used by HDAC1 to crotonylate histones at […] or higher; assay type: biochemical
[2] = target: T1, HDAC1; experiment: in vitro histone decrotonylation/deacetylation assay with recombinant HDAC1, western blot readout; assay type: biochemical

T1 sequence (Q13547 whole entry): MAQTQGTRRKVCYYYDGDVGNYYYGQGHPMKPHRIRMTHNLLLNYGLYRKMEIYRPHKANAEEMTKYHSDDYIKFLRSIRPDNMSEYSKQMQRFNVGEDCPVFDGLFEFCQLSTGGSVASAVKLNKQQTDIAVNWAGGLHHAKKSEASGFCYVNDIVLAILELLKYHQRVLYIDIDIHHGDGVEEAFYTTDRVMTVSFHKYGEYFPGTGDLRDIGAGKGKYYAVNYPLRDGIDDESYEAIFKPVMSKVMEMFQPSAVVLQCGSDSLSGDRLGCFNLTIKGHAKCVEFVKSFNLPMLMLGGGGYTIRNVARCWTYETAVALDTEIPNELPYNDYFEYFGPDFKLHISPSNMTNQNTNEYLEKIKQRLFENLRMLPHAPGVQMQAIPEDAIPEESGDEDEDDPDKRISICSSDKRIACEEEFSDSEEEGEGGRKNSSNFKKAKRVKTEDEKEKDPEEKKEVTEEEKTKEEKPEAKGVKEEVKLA

| SMILES | in vitro histone decrotonylation/deacetylation assay with recombinant HDAC1; als [1] | in vitro histone decrotonylation/deacetylation assay with recombinant HDAC1, wes [2] |
| --- | --- | --- |
| CC=CC(=O)O [crotonate] | We also found that crotonate inhibited decrotonylation and deacetylation in vitro (Fig. 7c). |  |
| CCCC(=O)O [butyrate] |  | In vitro, HDAC inhibitors TSA and butyrate reduced decrotonylation by HDAC1 significantly |
